Like-named read-outs stand apart in the source and are kept apart here.
Key:
[1] = system: human reconstructed epidermis Episkin™; assay: Skin irritation test in reconstructed human epidermis (Episkin); conditions: 5% aqueous, 15 min exposure, 42 h incubation
Description: The study used human reconstructed epidermis Episkin™ with an area of 1.07 cm^2. Immediately after receipt, the tissue was transferred to fresh medium and cultured in an incubator (37 °C, 5% CO2) for 18 hours. Before performing experiments, the inserts were washed with sterile PBS and placed in the wells of a 12-well plate containing 2 mL of fresh culture medium. […] After 15 min of exposure, samples were washed with PBS (5x5 mL). The inserts were transferred to plates with fresh culture medium and incubated for 42 hours (37 °C, 5% CO2). After this time, the entire medium was collected to assess the amount of released interleukin 1α (the medium was stored at -20 °C until the experiment was performed), and the inserts were transferred to the MTT solution. […] Measurement of the absorbance of the samples obtained in this way at 570 nm enabled the assessment of tissue viability according to the formula: % Viability = [OD (570 nm) for the tested compound/OD (570 nm) for the control] × 100.

tyrosinase [2] = conditions: cited from earlier work; for mechanism of tyrosinase inhibition: references [6], [7]
S. typhimurium TA1537 = assay: Ames microplate test, TA1537; assay type: cell-based, Salmonella typhimurium;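 further: reference level is the mean solvent-control yellow wells plus SD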
Description: (§1) Bacteria were grown overnight in growth medium.
(§2) Table 9. Ames microplate test results.

[3] = system: Chinese hamster ovary cell line (CHO-K1); assay: Genotoxicity in the micronucleus test in CHO-K1 cells; assay type: cell-based
[4] = system: B16-F10 murine melanoma cell line; assay: Cytotoxicity in B16-F10 cells (MTT); assay type: cell-based; conditions: 48 h
Description: In order to determine safe doses of compounds for testing the inhibition of melanogenesis in a murine melanoma cell line, cytotoxicity tests were performed. Cytotoxicity was determined by the colorimetric method using MTT ([3-(4,5-dimethyl-2-thiazolyl)-2,5-diphenyl-2H-tetrazolium bromide, Sigma M5655). For this purpose, cells were transferred to 96-well plates in an amount of 5000/well. After 24 h of culture in an incubator in F 10-Ham medium with 1% FBS, the tested compounds at various concentrations were added to the wells together with fresh medium. DMSO was added to the medium in a negative control. The MTT test was performed after further culture for 48 h. Then the medium was removed and the formed formazan crystals were dissolved in DMSO. The absorbance was measured at 570 nm in a plate reader and the result was compared to the control (DMSO), which was 100%. The percentage of viability was calculated using the formula: [AT/AC^∗100], where AT is the absorbance of the test sample, AC - absorbance of the control sample. Table 3. Results of inhibiting the activity of monophenolase […] tyrosinase and cytotoxicity testing in B16F10 cells for the described compounds.

tyrosinase from mushroom = assay: Inhibition of commercial mushroom tyrosinase (L-DOPA or L-tyrosine substrate); assay type: biochemical
Description: The following substrates were used for the enzymatic reaction: L-tyrosine and L-3,4-dihyroxyphenylalanine (L-DOPA). Both substrates were used in independent experiments. According to the literature, the use of L-DOPA enables the assessment of tyrosinase diphenolase activity, and L-tyrosine - the tyrosinase monophenolase activity. The determinations were performed in 96-well plates, in each well there was placed: 170 µL or 127.5 µL of 50 mM phosphate buffer (pH = 6.8) with tyrosinase (1U/well or 3U/well) and 10 µL of a solution of the tested compound in DMSO (the final concentration in the well was 500 µM, 250 µM or 125 µM). The negative control used 10 µL of pure solvent (DMSO). To initiate the reaction, an appropriate substrate was added: L-tyrosine (62.5 µL of solution in phosphate buffer) or L-DOPA (20 µL of solution in phosphate buffer). After a 25-minute incubation, the absorbance was measured at 475 nm using a microplate reader. The percentage of inhibition of tyrosinase activity was calculated using the formula: [(AC -AT)/AC] × 100, where AC - is the absorbance of the negative control, AT - is the absorbance of the sample containing the tested compound.

[5] = system: Chinese hamster ovary cell line (CHO-K1); assay: Cytotoxicity in CHO-K1 cells (MTT) before the micronucleus test; assay type: cell-based; conditions: 24 hours
Description: The assay was performed using a Chinese hamster ovary cell line (CHO-K1) purchased from the American Type Culture Collection (ATCC). The cells were cultured in F-12K medium with the addition of 10% fetal bovine serum (FBS) and antibiotics (streptomycin/penicillin) in an incubator at 37 °C and 5% CO2 concentration). Before the actual micronucleus test, a cytotoxicity assessment was performed to ensure that the actual test was performed only at safe concentrations. For this purpose, cells were transferred to 96-well plates and incubated with the tested compounds for 24 hours. After this time, the MTT test was performed and cell viability was assessed in comparison to the control group (cells cultured with DMSO at the same concentration as in the case of the tested samples).

S. typhimurium TA1535 = assay: Ames microplate test, TA1535;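 further: bacteria exposed to compound 90 min at 37 °C, then kept 48 h at 37 °C with indicator medium in 384-well plates, scoring wells that turned yellow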
Description: The study used the Ames microplate test (Ames MPF™ Penta 2 by Xenometrix, Allschwil, Switzerland). Growth medium, exposure medium, indicator medium, positive controls, hepatic microsomal fraction, NADP, glucose-6-phosphate, Salmonella typhimurium and Escherichia coli strains were components of the purchased experimental kit. Bacteria were grown overnight in growth medium. They were then exposed to the test compound at the appropriate concentration in exposure medium without or with the rat microsomal fraction S9 in 24-well plates for 90 min at 37 °C with shaking. Then, indicator medium was added to the wells and pipetted into 384-well plates, which were incubated for 48 hours at 37 °C without shaking. Results were assessed by counting the wells in which the medium turned yellow for each experimental condition.

S. typhimurium TA100 = assay: Ames microplate test, TA100; assay type: cell-based, Salmonella typhimurium;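 further: reference level is the mean solvent-control yellow wells plus SD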
Description: as §1, §2

E. coli WP2 = assay: Ames microplate test, E. coli WP2;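 further: bacteria treated 90 min at 37 °C in 24-well plates, then indicator medium dispensed to 384-well plates and incubated 48 h before yellow-well counting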
[6] = Lipophilicity coefficient RM0 by reversed phase thin layer chromatography; assay type: physicochemical; conditions: RP-18 TLC, methanol / 100 mM phosphate buffer pH = 7.4
Description: Confirmation of the identity and purity of the obtained compounds consisted in the registration and interpretation of ^1H NMR and ^13C NMR spectra (the spectra were recorded using an ECZR 500 MHz (JEOL) series FT-NMR spectrophotometer), as well as the registration and interpretation of LC-MS spectra (the spectra were recorded using Acquita UPLC system (Waters) coupled with a Waters TQD mass spectrometer). The melting point was measured using the open capillary method in the IA9300 device (Electrothermal). The lipophilicity coefficient RM0 was determined by reversed phase thin layer chromatography. In the study, aluminum plates 20x20 cm covered with modified silica gel RP-18 F254 (Merck) were used as the solid phase. The mobile phase consisted of solutions of methanol and 100 mM phosphate buffer (pH = 7.4), characterized by a variable methanol content ranging from 95 to 65% (v/v). The tested compounds were dissolved in methanol to obtain solutions with a concentration of 1 mg/mL. Then, 5 µL of the solutions prepared in this way were transferred to the starting line on aluminum plates, which were then placed in chromatographic chambers previously saturated with mobile phase vapors for at least 1 hour. All activities, including the development of chromatograms, were carried out at room temperature. After developing the chromatograms to approximately 1-2 cm from the end of the plate, the plates were dried and then the distance traveled by the tested compounds was visualized under UV light (λ = 254 nm). The experiment was performed in duplicate for the specified conditions. For all samples, Rf was calculated according to the formula Rf = a/b, where a - the distance traveled by the tested compound, b - the distance traveled by the mobile phase. Then, the RM parameter was calculated for all samples according to the formula RM = log(1/Rf - 1), obtaining a linear relationship between the RM values and the methanol concentration in the mobile phase. The logP coefficient was also calculated using the following computer programs: ACD/ChemSketch 2020.1.2 and ChemDraw 20.0.0.41. Table 2. The physicochemical data of the compounds are presented below

S. typhimurium TA98 = assay: Ames microplate test, TA98; assay type: cell-based, Salmonella typhimurium;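 further: reference level is the mean solvent-control yellow wells plus SD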
Description: as §1, §2

[7] = 7-day application of a cream to the skin before exposure to UV radiation; compared to untreated skin; reference [8]; cited from earlier work
tyrosinase [8] = conditions: reference [11], cited from earlier work
[9] = reference [6], read-out: IC50, tyrosinase diphenolase activity
[10] = reference [7], read-out: IC50, tyrosinase inhibition

CCCCCCCCCCCCOS(=O)(=O)[O-].[Na+] [SDS, sodium lauryl sulfate]
tissue viability ([1]; compared to the negative control (PBS and PEG400)): 23.8%
IL-1α concentration in the culture medium ([1]; positive control): > 250 pg/mL

O=C(O)C=Cc1ccccc1 [Cinnamic acid]
mechanism of tyrosinase inhibition (tyrosinase [2]): non-competitive inhibitor

CCC(O)CNC(=O)/C=C/c1ccc(Cl)cc1 (centres unmarked) [Compound A-67, (2E)-3-(4-chlorophenyl)-N-(2-hydroxybutyl)prop-2-enamide]
Increase in the number of yellow wells compared to the reference level (S. typhimurium TA1537; 0.5 mM, +S9): 1.00
Increase in the number of yellow wells compared to the reference level (S. typhimurium TA1537; 0.5 mM, without S9): 0.00
Increase in the number of yellow wells compared to the reference level (S. typhimurium TA1537; 1.0 mM, +S9): 1.33
Increase in the number of yellow wells compared to the reference level (S. typhimurium TA1537; 1.0 mM, without S9): 0.18
Increase in the number of yellow wells compared to the reference level (S. typhimurium TA1537; 2.0 mM, +S9): 0.00
Increase in the number of yellow wells compared to the reference level (S. typhimurium TA1537; 2.0 mM, without S9): 0.82
DB (dicentric bridges in 1000 binucleate cells) ([3]; 100 µM): 3.3 ± 0.6
MN (number of micronuclei in 1000 binucleate cells) ([3]; 100 µM): 12.0 ± 5.7
NB (nuclear buds in 1000 binucleate cells) ([3]; 100 µM): 5.0 ± 2.8
NDI (nuclear division index) ([3]; 100 µM): 1.58
DB (dicentric bridges in 1000 binucleate cells) ([3]; 150 µM): 2.3 ± 0.6
MN (number of micronuclei in 1000 binucleate cells) ([3]; 150 µM): 8.0 ± 2.8
NB (nuclear buds in 1000 binucleate cells) ([3]; 150 µM): 5.5 ± 2.1
NDI (nuclear division index) ([3]; 150 µM): 1.62
DB (dicentric bridges in 1000 binucleate cells) ([3]; 200 µM): 3.0 ± 2.8
MN (number of micronuclei in 1000 binucleate cells) ([3]; 200 µM): 6.5 ± 2.1
NB (nuclear buds in 1000 binucleate cells) ([3]; 200 µM): 5.5 ± 0.7
NDI (nuclear division index) ([3]; 200 µM): 1.62
Cytotoxicity study in B16F10 cells % viability ([4]; 150 µM): 73.6%
Cytotoxicity study in B16F10 cells % viability ([4]; 200 µM): 87.8%
Cytotoxicity study in B16F10 cells % viability ([4]; 250 µM): 84.4%
Tyrosinase inhibition with L-DOPA [%] (tyrosinase from mushroom; L-DOPA): 60.76±1.99% (500 µM)
IC50 (tyrosinase from mushroom; L-DOPA, read-out: Tyrosinase inhibition with L-DOPA, IC50): 232 µM
Tyrosinase inhibition with L-tyrosine [%] (tyrosinase from mushroom; L-tyrosine): 79.20±1.20% (500 µM)
IC50 (tyrosinase from mushroom; L-tyrosine, read-out: Tyrosinase inhibition with L-tyrosine, IC50): 165 µM
% Viability [mean] ([5]; 100 µM): 96.0%
% Viability [mean] ([5]; 150 µM): 90.3%
% Viability [mean] ([5]; 200 µM): 84.0%
Increase in the number of yellow wells compared to the reference level (S. typhimurium TA1535; 0.5 mM, +S9): 0.27
Increase in the number of yellow wells compared to the reference level (S. typhimurium TA1535; 0.5 mM, without S9): 0.30
Increase in the number of yellow wells compared to the reference level (S. typhimurium TA1535; 1.0 mM, +S9): 0.54
Increase in the number of yellow wells compared to the reference level (S. typhimurium TA1535; 1.0 mM, without S9): 0.45
Increase in the number of yellow wells compared to the reference level (S. typhimurium TA1535; 2.0 mM, +S9): 0.13
Increase in the number of yellow wells compared to the reference level (S. typhimurium TA1535; 2.0 mM, without S9): 1.04
Increase in the number of yellow wells compared to the reference level (S. typhimurium TA100; 0.5 mM, +S9): 0.78
Increase in the number of yellow wells compared to the reference level (S. typhimurium TA100; 0.5 mM, without S9): 1.53
Increase in the number of yellow wells compared to the reference level (S. typhimurium TA100; 1.0 mM, +S9): 0.64
Increase in the number of yellow wells compared to the reference level (S. typhimurium TA100; 1.0 mM, without S9): 0.93
Increase in the number of yellow wells compared to the reference level (S. typhimurium TA100; 2.0 mM, +S9): 0.31
Increase in the number of yellow wells compared to the reference level (S. typhimurium TA100; 2.0 mM, without S9): 0.80
Increase in the number of yellow wells compared to the reference level (E. coli WP2; 0.5 mM, +S9): 0.83
Increase in the number of yellow wells compared to the reference level (E. coli WP2; 0.5 mM, without S9): 0.50
Increase in the number of yellow wells compared to the reference level (E. coli WP2; 1.0 mM, +S9): 0.42
Increase in the number of yellow wells compared to the reference level (E. coli WP2; 1.0 mM, without S9): 1.00
Increase in the number of yellow wells compared to the reference level (E. coli WP2; 2.0 mM, +S9): 1.42
Increase in the number of yellow wells compared to the reference level (E. coli WP2; 2.0 mM, without S9): 0.83
RM0 [6]: 2.46
Increase in the number of yellow wells compared to the reference level (S. typhimurium TA98; 0.5 mM, +S9): 0.31
Increase in the number of yellow wells compared to the reference level (S. typhimurium TA98; 0.5 mM, without S9): 0.27
Increase in the number of yellow wells compared to the reference level (S. typhimurium TA98; 1.0 mM, +S9): 0.94
Increase in the number of yellow wells compared to the reference level (S. typhimurium TA98; 1.0 mM, without S9): 1.07
Increase in the number of yellow wells compared to the reference level (S. typhimurium TA98; 2.0 mM, +S9): 1.04
Increase in the number of yellow wells compared to the reference level (S. typhimurium TA98; 2.0 mM, without S9): 1.07

O=C(O)C=Cc1ccc(O)cc1 [4-Hydroxycinnamic acid]
IC50 (tyrosinase [2]; [9]): 500 µM
inhibition of erythema formation [7]: 77%

O=C(O)C=Cc1ccc(Cl)cc1Cl [2,4-dichlorocinnamic acid]
IC50 (tyrosinase [2]; [10]): 295 µM
mechanism of tyrosinase inhibition (tyrosinase [2]): reversible non-competitive mechanism

O=C(O)C=Cc1ccccc1Cl [2-Chlorocinnamic acid]
IC50 (tyrosinase [2]; [10]): 765 µM
mechanism of tyrosinase inhibition (tyrosinase [2]): reversible non-competitive mechanism

CCOC(=O)[C@H](Cc1ccccc1)NC(=O)C=Cc1ccc(O)c(OC)c1 (stereo in doubt) [N-[3-(4-hydroxy-3-methoxyphenyl)-1-oxo-2-propen-1-yl]-L-phenylalanine ethyl ester]
type of inhibition (tyrosinase [8]): mixed type of inhibition
IC50 (tyrosinase [8]; read-out: IC50, tyrosinase inhibition): 0.185 ± 0.005 µM

COc1ccc(C=CC(=O)O)cc1 [4-methoxycinnamic acid]
IC50 (tyrosinase [2]; [9]): 420 µM

From patent EP4324461A1, “(E)-N-CINAMOYLAMINOALKANOLES WITH MELANOGENESIS INHIBITORY ACTIVITY” (UNIWERSYTET JAGIELLONSKI, priority 2022, dated 2024)
